Tested on in one data set: not listed separately
Kind of data set: Selectivity index, ratio IC50 for rat L6 cells to IC50 for multidrug-resistant Plasmodium falciparum K1 infected in human red blood cells. The format is functional.
Conditions: not given
For `CN(C)CCNc1cc(C(F)(F)F)c(C#N)c2nc3ccccc3n12`, the “Ratio IC50” value was 13.

Take `CCN(CC)CCCNc1cc(-c2cccc(F)c2)c(C#N)c2nc3ccccc3n12`: the “Ratio IC50” value is on record as 121.

In the case of `CN(C)CCNc1cc(-c2ccc(C(F)(F)F)cc2)c(C#N)c2nc3ccccc3n12`, the “Ratio IC50” value was above 1600.

`N#Cc1c(-c2ccc(C(F)(F)F)cc2)cc(NCCN)n2c1nc1ccccc12`: the “Ratio IC50” value is on record as 3.4.

Take `CCN(CC)CCCNc1cc(-c2ccc(F)cc2)c(C#N)c2nc3ccccc3n12`: the “Ratio IC50” value amounted to 122.

For the molecule `CN(C)CCCNc1cc(C(F)(F)F)c(C#N)c2nc3ccccc3n12`, the “Ratio IC50” value was 52.5.

Take `CCN(CC)CCCNc1cc(C(F)(F)F)c(C#N)c2nc3ccccc3n12`: the “Ratio IC50” value is on record as 42.2.

As for `CN(C)CCNc1cc(-c2cccc(F)c2)c(C#N)c2nc3ccccc3n12`, the “Ratio IC50” value stood at 7.

`CCN(CC)CCNc1cc(C(F)(F)F)c(C#N)c2nc3ccccc3n12`: the “Ratio IC50” value is 63.7.

Take `CCN(CC)CCNc1cc(-c2cccc(F)c2)c(C#N)c2nc3ccccc3n12`: the “Ratio IC50” value is recorded as 225.

On to `N#Cc1c(-c2ccc(C(F)(F)F)cc2)cc(NCCCN)n2c1nc1ccccc12`, for which the “Ratio IC50” value came to 6.8.

For the molecule `CN(C)CCNc1cc(-c2cccc(C(F)(F)F)c2)c(C#N)c2nc3ccccc3n12`, the “Ratio IC50” value was 24.6.

With `CCN(CC)CCCNc1cc(-c2ccc(C(F)(F)F)cc2)c(C#N)c2nc3ccccc3n12`, the “Ratio IC50” value was above 633.

Consider `CN(C)CCCNc1cc(-c2ccc(Cl)cc2)c(C#N)c2nc3ccccc3n12`, for which the “Ratio IC50” value is above 1000.

For `CN(C)CCCNc1cc(-c2ccccc2)c(C#N)c2nc3ccccc3n12`, the “Ratio IC50” value is given as 71.

On to `CN(C)CCNc1cc(-c2ccc(Cl)cc2)c(C#N)c2nc3ccccc3n12`, for which the “Ratio IC50” value is recorded as 62.9.

Consider `N#Cc1c(C(F)(F)F)cc(NCCN)n2c1nc1ccccc12`, for which the “Ratio IC50” value was 13.

The subject of a further data set is L6. Kind of data set: Cytotoxicity at rat L6 cells after 72 hrs by microplate alamar blue assay. The format is cell-based. Conditions: Rattus norvegicus, L6, 72 h.
`CN(C)CCNc1cc(C(F)(F)F)c(C#N)c2nc3ccccc3n12` registered a half-inhibitory concentration (IC50) of 44.7 µM.

The molecule `CCN(CC)CCCNc1cc(-c2cccc(F)c2)c(C#N)c2nc3ccccc3n12` displayed a 50% inhibitory concentration (IC50) of 55.7 µM.

On to `CN(C)CCNc1cc(-c2ccc(C(F)(F)F)cc2)c(C#N)c2nc3ccccc3n12`, for which the IC50 was above 210 µM.

`N#Cc1c(-c2ccc(C(F)(F)F)cc2)cc(NCCN)n2c1nc1ccccc12` came in with an IC50 of 5.11 µM.

Take `CCN(CC)CCCNc1cc(-c2ccc(F)cc2)c(C#N)c2nc3ccccc3n12`: the IC50 was 86.6 µM.

Take `CN(C)CCCNc1cc(C(F)(F)F)c(C#N)c2nc3ccccc3n12`: the IC50 was 166 µM.

Regarding `CCN(CC)CCCNc1cc(C(F)(F)F)c(C#N)c2nc3ccccc3n12`, inhibition was half-maximal at 87.8 µM (IC50).

The molecule `CN(C)CCNc1cc(-c2cccc(F)c2)c(C#N)c2nc3ccccc3n12` registered an IC50 of 5.88 µM.

`CCN(CC)CCNc1cc(C(F)(F)F)c(C#N)c2nc3ccccc3n12` had a concentration for half-maximal inhibition (IC50) of 121 µM.

The molecule `CCN(CC)CCNc1cc(-c2cccc(F)c2)c(C#N)c2nc3ccccc3n12` registered an IC50 of 124 µM.

On to `COc1cc([C@@H]2c3cc4c(cc3[C@H](O)[C@H]3COC(=O)[C@H]23)OCO4)cc(OC)c1OC` [PODOFILOX], for which the IC50 was 0.009 µM.

On to `N#Cc1c(-c2ccc(C(F)(F)F)cc2)cc(NCCCN)n2c1nc1ccccc12`, for which the IC50 amounted to 6.26 µM.

Molecule `CN(C)CCNc1cc(-c2cccc(C(F)(F)F)c2)c(C#N)c2nc3ccccc3n12` had a half-inhibitory concentration (IC50) of 7.14 µM.

With `CN(C)CCCNc1cc(-c2ccc(Cl)cc2)c(C#N)c2nc3ccccc3n12`, the IC50 was above 210 µM.

For the molecule `CN(C)CCCNc1cc(-c2ccccc2)c(C#N)c2nc3ccccc3n12`, half-maximal inhibition (IC50) was put at 108 µM.

In turn, `CN(C)CCNc1cc(-c2ccc(Cl)cc2)c(C#N)c2nc3ccccc3n12` gave an IC50 of 19.5 µM.

The molecule `N#Cc1c(C(F)(F)F)cc(NCCN)n2c1nc1ccccc12` displayed an IC50 of 40.1 µM.

The data set is the same for the next values; noted with them: l6.
The molecule `CN(C)CCCNc1cc(-c2cccc(C(F)(F)F)c2)c(C#N)c2nc3ccccc3n12.Cl.Cl` gave a half-inhibitory concentration (IC50) of 19.2 µM.

`CCN(CC)CCCNc1cc(-c2cccc(C(F)(F)F)c2)c(C#N)c2nc3ccccc3n12.Cl.Cl` returned a concentration for half-maximal inhibition (IC50) of 11.8 µM.

Consider `CN(C)CCNc1cc(-c2ccc(C(F)(F)F)cc2)c(C#N)c2nc3ccccc3n12.Cl`, for which the midpoint of inhibition, the IC50, lay at 147 µM.

The molecule `CCN(CC)CCCNc1cc(-c2ccc(C(F)(F)F)cc2)c(C#N)c2nc3ccccc3n12` gave an IC50 above 190 µM.

As to `CN(C)CCCNc1cc(-c2ccc(C(F)(F)F)cc2)c(C#N)c2nc3ccccc3n12.Cl.Cl`, the IC50 was 21.1 µM.

Tested on in the next data set: not listed separately
Briefly: Distribution coefficient, log D of the compound at pH 7.4. The format is physicochemical. To be noted: octanol/water.
For the molecule `CN(C)CCNc1cc(C(F)(F)F)c(C#N)c2nc3ccccc3n12`, the logD came to 2.01.

Molecule `CCN(CC)CCCNc1cc(-c2cccc(F)c2)c(C#N)c2nc3ccccc3n12` registered a pH-dependent lipophilicity (logD) of 2.02.

Turning to `CN(C)CCNc1cc(-c2ccc(C(F)(F)F)cc2)c(C#N)c2nc3ccccc3n12`, the log distribution coefficient (logD) came to 2.45.

Molecule `N#Cc1c(-c2ccc(C(F)(F)F)cc2)cc(NCCN)n2c1nc1ccccc12` displayed a logD of 1.8.

With `CCN(CC)CCCNc1cc(-c2ccc(F)cc2)c(C#N)c2nc3ccccc3n12`, the log distribution coefficient (logD) came to 1.93.

`CN(C)CCCNc1cc(C(F)(F)F)c(C#N)c2nc3ccccc3n12` yielded a pH-dependent lipophilicity (logD) of 2.06.

Regarding `CCN(CC)CCCNc1cc(C(F)(F)F)c(C#N)c2nc3ccccc3n12`, the log distribution coefficient (logD) stood at 2.54.

With `CN(C)CCNc1cc(-c2cccc(F)c2)c(C#N)c2nc3ccccc3n12`, the pH-dependent lipophilicity (logD) was found to be 1.5.

With `CCN(CC)CCNc1cc(C(F)(F)F)c(C#N)c2nc3ccccc3n12`, the pH-dependent lipophilicity (logD) was 2.51.

Molecule `CCN(CC)CCNc1cc(-c2cccc(F)c2)c(C#N)c2nc3ccccc3n12` came in with a logD of 1.99.

As to `N#Cc1c(-c2ccc(C(F)(F)F)cc2)cc(NCCCN)n2c1nc1ccccc12`, the log distribution coefficient (logD) is 1.46.

`CN(C)CCNc1cc(-c2cccc(C(F)(F)F)c2)c(C#N)c2nc3ccccc3n12` had a log distribution coefficient (logD) of 2.45.

With `CCN(CC)CCCNc1cc(-c2ccc(C(F)(F)F)cc2)c(C#N)c2nc3ccccc3n12`, the logD stood at 2.97.

As for `CN(C)CCCNc1cc(-c2ccc(Cl)cc2)c(C#N)c2nc3ccccc3n12`, the log distribution coefficient (logD) was 2.09.

`CN(C)CCCNc1cc(-c2ccccc2)c(C#N)c2nc3ccccc3n12` gave a logD of 1.52.

Molecule `CN(C)CCNc1cc(-c2ccc(Cl)cc2)c(C#N)c2nc3ccccc3n12` yielded a logD of 2.05.

The molecule `N#Cc1c(C(F)(F)F)cc(NCCN)n2c1nc1ccccc12` returned a pH-dependent lipophilicity (logD) of 1.37.

For another data set, the system named is Plasmodium berghei. Kind of data set: Antimalarial activity against GFP-transfected Plasmodium berghei strain ANKA infected in NMRI mouse assessed as reduction in parasitemia at 50 mg/kg/day, ip administered for 4 consecutive days measured 24 hrs after last treatment by FACS analysis relative to control. The arrangement: scale not given: the % may be the effect or the level left. The format is functional. Conditions: route intraperitoneal.
In the case of `CN(C)CCCNc1cc(-c2cccc(C(F)(F)F)c2)c(C#N)c2nc3ccccc3n12.Cl.Cl`, the Activity is 0%.

With `CCN(CC)CCCNc1cc(-c2cccc(C(F)(F)F)c2)c(C#N)c2nc3ccccc3n12.Cl.Cl`, the Activity is reported as 0%.

Regarding `CN(C)CCNc1cc(-c2ccc(C(F)(F)F)cc2)c(C#N)c2nc3ccccc3n12.Cl`, the Activity worked out at 0%.

Regarding `CN(C)CCCNc1cc(-c2ccc(C(F)(F)F)cc2)c(C#N)c2nc3ccccc3n12.Cl.Cl`, the Activity was 30.7%.

Another data set concerns Plasmodium falciparum.
Test: not given
Conditions: not given
`CN(C)CCCNc1cc(-c2cccc(C(F)(F)F)c2)c(C#N)c2nc3ccccc3n12.Cl.Cl` showed a half-maximal inhibitory concentration (IC50) of 0.49 µM.

`CCN(CC)CCCNc1cc(-c2cccc(C(F)(F)F)c2)c(C#N)c2nc3ccccc3n12.Cl.Cl` had a half-maximal inhibitory concentration (IC50) of 0.25 µM.

Take `CN(C)CCNc1cc(-c2ccc(C(F)(F)F)cc2)c(C#N)c2nc3ccccc3n12.Cl`: the IC50 was 0.1 µM.

`CN(C)CCCNc1cc(-c2ccc(C(F)(F)F)cc2)c(C#N)c2nc3ccccc3n12.Cl.Cl` gave an IC50 of 0.26 µM.

A further data set relates to Plasmodium falciparum. Kind of data set: microbe, parasite or virus in culture. To be noted: K1.
Description: Antimalarial activity against multidrug-resistant Plasmodium falciparum K1 infected in human red blood cells assessed as 3H-hypoxanthine incorporation after 48 hrs by liquid scintillation counting
For `CN(C)CCNc1cc(C(F)(F)F)c(C#N)c2nc3ccccc3n12`, the IC50 is 3.43 µM.

Molecule `CCN(CC)CCCNc1cc(-c2cccc(F)c2)c(C#N)c2nc3ccccc3n12` yielded an IC50 of 0.46 µM.

In the case of `CN(C)CCNc1cc(-c2ccc(C(F)(F)F)cc2)c(C#N)c2nc3ccccc3n12`, half-maximal inhibition (IC50) required 0.13 µM.

`N#Cc1c(-c2ccc(C(F)(F)F)cc2)cc(NCCN)n2c1nc1ccccc12` displayed a half-inhibitory concentration (IC50) of 1.49 µM.

Molecule `CCN(CC)CCCNc1cc(-c2ccc(F)cc2)c(C#N)c2nc3ccccc3n12` returned a 50% inhibitory concentration (IC50) of 0.71 µM.

Molecule `CN(C)CCCNc1cc(C(F)(F)F)c(C#N)c2nc3ccccc3n12` returned an IC50 of 3.16 µM.

Regarding `CCN(CC)CCCNc1cc(C(F)(F)F)c(C#N)c2nc3ccccc3n12`, the half-maximal inhibitory concentration (IC50) was 2.08 µM.

On to `CN(C)CCNc1cc(-c2cccc(F)c2)c(C#N)c2nc3ccccc3n12`, for which the midpoint of inhibition, the IC50, lay at 0.84 µM.

The molecule `CCN(CC)CCNc1cc(C(F)(F)F)c(C#N)c2nc3ccccc3n12` gave an IC50 of 1.9 µM.

Take `CCN(CC)CCNc1cc(-c2cccc(F)c2)c(C#N)c2nc3ccccc3n12`: the IC50 is 0.55 µM.

Molecule `N#Cc1c(-c2ccc(C(F)(F)F)cc2)cc(NCCCN)n2c1nc1ccccc12` returned an IC50 of 0.92 µM.

Molecule `CN(C)CCNc1cc(-c2cccc(C(F)(F)F)c2)c(C#N)c2nc3ccccc3n12` displayed an IC50 of 0.29 µM.

In the case of `CCN(CC)CCCNc1cc(-c2ccc(C(F)(F)F)cc2)c(C#N)c2nc3ccccc3n12`, half-maximal inhibition (IC50) required 0.3 µM.

Regarding `CN(C)CCCNc1cc(-c2ccc(Cl)cc2)c(C#N)c2nc3ccccc3n12`, the IC50 was 0.21 µM.

`CN(C)CCCNc1cc(-c2ccccc2)c(C#N)c2nc3ccccc3n12`: the 50% inhibitory concentration (IC50) was 1.52 µM.

In turn, `CN(C)CCNc1cc(-c2ccc(Cl)cc2)c(C#N)c2nc3ccccc3n12` had a 50% inhibitory concentration (IC50) of 0.31 µM.

Turning to `N#Cc1c(C(F)(F)F)cc(NCCN)n2c1nc1ccccc12`, the IC50 is 3.09 µM.

Values taken from ChEMBL document CHEMBL1799932, “Antimalarial pyrido[1,2-a]benzimidazoles” (J Med Chem, 2011).
